Data: ChEMBL document CHEMBL1147199, “Exploration of the correlation between the structure, hemolytic activity, and cytotoxicity of steroid saponins” (Bioorg Med Chem, 2007)

Legend:
Assay type in all cases: cell-based, Erythrocyte; call rule not given here
[1] = Cytotoxicity against human erythrocytes assessed as hemolytic activity after 60 mins; details: read-out: HD50
[2] = Cytotoxicity against human erythrocytes assessed as hemolytic activity at 75 ug/ml after 60 mins
[3] = Cytotoxicity against human erythrocytes assessed as hemolytic activity at 50 ug/ml after 60 mins; details: read-out: Activity
[4] = Cytotoxicity against human erythrocytes assessed as hemolytic activity at 30 ug/ml after 60 mins; details: read-out: Activity
[5] = Cytotoxicity against human erythrocytes assessed as hemolytic activity at 100 ug/ml after 60 mins; details: for Activity: erythrocyte, 1 h
[6] = Cytotoxicity against human erythrocytes assessed as hemolytic activity at 40 ug/ml after 60 mins; details: read-out: Activity

SMILES | HC50 at 1 h [1] | other results
CCCCCC(=O)O[C@H]1[C@H](O)[C@H](O)[C@@H](O[C@H]2[C@H](O)[C@@H](O[C@H]3O[C@H](C)[C@@H](O)[C@H](O)[C@@H]3O)[C@H](O[C@H]3CC[C@@]4(C)C(=CC[C@H]5[C@@H]6C[C@@H]7O[C@]8(CC[C@@H](C)CO8)[C@@H](C)[C@@H]7[C@@]6(C)CC[C@@H]54)C3)O[C@@H]2CO)O[C@@H]1C | 2.2 µM | 
C[C@@H]1CC[C@@]2(OC1)O[C@H]1C[C@H]3[C@@H]4CC=C5C[C@@H](O[C@@H]6O[C@H](CO[C@@H]7O[C@@H](C)[C@H](O)[C@@H](O)[C@H]7O)[C@@H](O)[C@H](O)[C@H]6O)CC[C@]5(C)[C@H]4CC[C@]3(C)[C@H]1[C@@H]2C | 28.6 µM | 
CC(=O)OC[C@H]1O[C@@H](O[C@H]2CC[C@@]3(C)C(=CC[C@H]4[C@@H]5C[C@@H]6O[C@]7(CC[C@@H](C)CO7)[C@@H](C)[C@@H]6[C@@]5(C)CC[C@@H]43)C2)[C@H](O[C@@H]2O[C@@H](C)[C@H](OC(C)=O)[C@@H](O)[C@H]2O)[C@@H](O)[C@@H]1O | > 75 µM | hemolysis % ([2]; erythrocyte): 8%
C[C@@H]1CC[C@@]2(OC1)O[C@H]1C[C@H]3[C@@H]4CC[C@H]5C[C@@H](O[C@@H]6O[C@H](CO)[C@@H](O[C@H]7O[C@H](C)[C@@H](O)[C@H](O)[C@@H]7O)[C@H](O)[C@H]6O[C@H]6O[C@H](C)[C@@H](O)[C@H](O)[C@@H]6O)[C@H](O)C[C@]5(C)[C@H]4CC[C@]3(C)[C@H]1[C@@H]2C | 13.1 µM | 
CC(=O)O[C@@H]1[C@@H](O)[C@@H](O)[C@H](OC[C@H]2O[C@@H](O[C@H]3CC[C@@]4(C)C(=CC[C@H]5[C@@H]6C[C@@H]7O[C@]8(CC[C@@H](C)CO8)[C@@H](C)[C@@H]7[C@@]6(C)CC[C@@H]54)C3)[C@H](O)[C@@H](O)[C@@H]2O)O[C@H]1C | > 50 µM | hemolysis at 1 h, 50 ug/ml [3]: 12%
CC(=O)O[C@H]1[C@H](O)[C@H](O)[C@@H](O[C@H]2[C@H](O)[C@@H](O[C@H]3O[C@H](C)[C@@H](O)[C@H](O)[C@@H]3O)[C@H](O[C@H]3CC[C@@]4(C)C(=CC[C@H]5[C@@H]6C[C@@H]7O[C@]8(CC[C@@H](C)CO8)[C@@H](C)[C@@H]7[C@@]6(C)CC[C@@H]54)C3)O[C@@H]2CO)O[C@@H]1C | 3.2 µM | 
CC(=O)OC[C@H]1O[C@@H](O[C@H]2CC[C@@]3(C)C(=CC[C@H]4[C@@H]5C[C@@H]6O[C@]7(CC[C@@H](C)CO7)[C@@H](C)[C@@H]6[C@@]5(C)CC[C@@H]43)C2)[C@H](O[C@@H]2O[C@@H](C)[C@H](O)[C@@H](O)[C@H]2O)[C@@H](O)[C@@H]1O | > 75 µM | hemolysis at 1 h, 75 ug/ml ([2]; human, human erythrocytes, read-out: Activity): 29%
CC(=O)O[C@@H]1[C@@H](O)[C@@H](O)[C@H](O[C@H]2[C@H](O)[C@@H](O)[C@H](O[C@H]3CC[C@@]4(C)C(=CC[C@H]5[C@@H]6C[C@@H]7O[C@]8(CC[C@@H](C)CO8)[C@@H](C)[C@@H]7[C@@]6(C)CC[C@@H]54)C3)O[C@@H]2CO)O[C@H]1C | 29.3 µM | 
CC(=O)O[C@H]1C[C@@H]2[C@H](CC[C@]3(C)[C@@H]4[C@H](C[C@@H]23)O[C@]2(CC[C@@H](C)CO2)[C@H]4C)[C@@]2(C)C[C@@H](O)[C@H](O[C@@H]3O[C@H](CO)[C@@H](O[C@H]4O[C@H](C)[C@@H](O)[C@H](O)[C@@H]4O)[C@H](O)[C@H]3O[C@H]3O[C@H](C)[C@@H](O)[C@H](O)[C@@H]3O)C[C@H]12 | > 30 µM | hemolysis at 1 h, 30 ug/ml [4]: 34%
CCCCCCCCCCCCCCCC(=O)O[C@H]1C[C@@H]2[C@H](CC[C@]3(C)[C@@H]4[C@H](C[C@@H]23)O[C@]2(CC[C@@H](C)CO2)[C@H]4C)[C@@]2(C)C[C@@H](O)[C@H](O[C@@H]3O[C@H](CO)[C@@H](O[C@H]4O[C@H](C)[C@@H](O)[C@H](O)[C@@H]4O)[C@H](O)[C@H]3O[C@H]3O[C@H](C)[C@@H](O)[C@H](O)[C@@H]3O)C[C@H]12 | > 100 µM | Activity [5]: Not Active
C[C@@H]1CC[C@@]2(OC1)O[C@H]1C[C@H]3[C@@H]4CC=C5C[C@@H](O[C@@H]6O[C@H](CO)[C@@H](O[C@@H]7O[C@@H](C)[C@H](O)[C@@H](O)[C@H]7O)[C@H](O)[C@H]6O)CC[C@]5(C)[C@H]4CC[C@]3(C)[C@H]1[C@@H]2C | 27.3 µM | 
CCCC(=O)O[C@H]1[C@H](O)[C@H](O)[C@@H](O[C@H]2[C@H](O)[C@@H](O[C@H]3O[C@H](C)[C@@H](O)[C@H](O)[C@@H]3O)[C@H](O[C@H]3CC[C@@]4(C)C(=CC[C@H]5[C@@H]6C[C@@H]7O[C@]8(CC[C@@H](C)CO8)[C@@H](C)[C@@H]7[C@@]6(C)CC[C@@H]54)C3)O[C@@H]2CO)O[C@@H]1C | 2.8 µM | 
CCCCCCCCCCCC(=O)O[C@H]1C[C@@H]2[C@H](CC[C@]3(C)[C@@H]4[C@H](C[C@@H]23)O[C@]2(CC[C@@H](C)CO2)[C@H]4C)[C@@]2(C)C[C@@H](O)[C@H](O[C@@H]3O[C@H](CO)[C@@H](O[C@H]4O[C@H](C)[C@@H](O)[C@H](O)[C@@H]4O)[C@H](O)[C@H]3O[C@H]3O[C@H](C)[C@@H](O)[C@H](O)[C@@H]3O)C[C@H]12 | > 100 µM | hemolysis at 1 h, 100 ug/ml ([5]; human erythrocytes, read-out: Activity): 8.5%
CO[C@]1(CCC(C)CO[C@@H]2O[C@H](CO)[C@@H](O)[C@H](O)[C@H]2O)O[C@H]2C[C@H]3[C@@H]4CC=C5C[C@@H](O[C@@H]6O[C@H](CO)[C@@H](O[C@H]7O[C@H](C)[C@@H](O)[C@H](O)[C@@H]7O)[C@H](O)[C@H]6O[C@H]6O[C@H](C)[C@@H](O)[C@H](O)[C@@H]6O)[C@H](O)C[C@]5(C)[C@H]4CC[C@]3(C)[C@H]2[C@@H]1C (stereo partly drawn) | > 100 µM | Activity [5]: Not Active
CO[C@]1(CCC(C)CS[C@@H]2O[C@H](CO)[C@@H](O)[C@H](O)[C@H]2O)O[C@H]2C[C@H]3[C@@H]4CC=C5C[C@@H](O[C@@H]6O[C@H](CO)[C@@H](O[C@H]7O[C@H](C)[C@@H](O)[C@H](O)[C@@H]7O)[C@H](O)[C@H]6O[C@H]6O[C@H](C)[C@@H](O)[C@H](O)[C@@H]6O)[C@H](O)C[C@]5(C)[C@H]4CC[C@]3(C)[C@H]2[C@@H]1C (stereo partly drawn) | > 100 µM | Activity [5]: Not Active
CC(=O)OC[C@H]1O[C@H](O[C@H]2[C@H](O)[C@@H](O[C@H]3O[C@H](C)[C@@H](O)[C@H](O)[C@@H]3O)[C@H](O[C@H]3CC[C@@]4(C)C(=CC[C@H]5[C@@H]6C[C@@H]7O[C@]8(CC[C@@H](C)CO8)[C@@H](C)[C@@H]7[C@@]6(C)CC[C@@H]54)C3)O[C@@H]2CO)[C@@H](O)[C@@H]1OC(C)=O | 2.7 µM | 
C[C@@H]1CC[C@@]2(OC1)O[C@H]1C[C@H]3[C@@H]4CC[C@H]5C[C@@H](O[C@@H]6O[C@H](CO)[C@@H](O[C@H]7O[C@H](C)[C@@H](O)[C@H](O)[C@@H]7O)[C@H](O)[C@H]6O[C@H]6O[C@H](C)[C@@H](O)[C@H](O)[C@@H]6O)CC[C@]5(C)[C@H]4CC[C@]3(C)[C@H]1[C@@H]2C | 3 µM | 
C[C@@H]1CC[C@@]2(OC1)O[C@H]1C[C@H]3[C@@H]4CC=C5C[C@@H](O[C@@H]6O[C@H](CO)[C@@H](O[C@@H]7O[C@@H](C)[C@H](O)[C@@H](O)[C@H]7O)[C@H](O)[C@H]6O[C@@H]6O[C@@H](C)[C@H](O)[C@@H](O)[C@H]6O)CC[C@]5(C)[C@H]4CC[C@]3(C)[C@H]1[C@@H]2C [DIOSCIN] | 6.8 µM | 
C[C@@H]1CC[C@@]2(OC1)O[C@H]1C[C@H]3[C@@H]4CC=C5C[C@@H](O[C@@H]6O[C@H](CO)[C@@H](O)[C@H](O)[C@H]6O)CC[C@]5(C)[C@H]4CC[C@]3(C)[C@H]1[C@@H]2C [DISOGLUSIDE] | > 100 µM | Activity [5]: Not Active
C[C@@H]1CC[C@@]2(OC1)O[C@H]1C[C@H]3[C@@H]4CC=C5C[C@@H](O[C@@H]6O[C@H](CO)[C@@H](O)[C@H](O)[C@H]6O[C@@H]6O[C@@H](C)[C@H](O)[C@@H](O)[C@H]6O)CC[C@]5(C)[C@H]4CC[C@]3(C)[C@H]1[C@@H]2C [OPHIOPOGONIN C] | 21.6 µM | 
C[C@@H]1CC[C@@]2(OC1)O[C@H]1C[C@H]3[C@@H]4CC=C5C[C@@H](O[C@@H]6O[C@H](CO)[C@@H](O)[C@H](O[C@@H]7O[C@@H](C)[C@H](O)[C@@H](O)[C@H]7O)[C@H]6O)CC[C@]5(C)[C@H]4CC[C@]3(C)[C@H]1[C@@H]2C [POLYPHILLIN C] | > 40 µM | hemolysis at 1 h, 40 ug/ml [6]: 15%
C[C@@H]1CC[C@@]2(OC1)O[C@H]1C[C@H]3[C@@H]4CC=C5C[C@@H](O[C@@H]6O[C@H](CO)[C@@H](O[C@H]7O[C@H](CO)[C@@H](O)[C@@H]7O)[C@H](O)[C@H]6O[C@H]6O[C@H](C)[C@@H](O)[C@H](O)[C@@H]6O)CC[C@]5(C)[C@H]4CC[C@]3(C)[C@H]1[C@@H]2C [POLYPHILLIN D] | 3.9 µM | 
C[C@@H]1CC[C@@]2(OC1)O[C@H]1C[C@H]3[C@@H]4CC=C5C[C@@H](O[C@@H]6O[C@H](CO)[C@@H](O)[C@H](O[C@@H]7O[C@@H](C)[C@H](O)[C@@H](O)[C@H]7O)[C@H]6O[C@H]6O[C@H](C)[C@@H](O)[C@H](O)[C@@H]6O)CC[C@]5(C)[C@H]4CC[C@]3(C)[C@H]1[C@@H]2C [TACCAOSIDE] | 6.8 µM | 
